Reference: ChEMBL document CHEMBL3585319 (J Med Chem, 2015)
The source made the active and inactive calls. The rule behind the calls is not given here.

Tests used:
[1] = target: T1, Sodium-dependent serotonin transporter (Homo sapiens, UniProt P31645); assay: Inhibition of wild type human SERT expressed in HEK293 GripTite cells pre-incubated for 5 mins followed by [3H]5-HT addition by [3H]5-HT uptake assay; type: cell-based
Target sequence in this assay (P31645 whole entry): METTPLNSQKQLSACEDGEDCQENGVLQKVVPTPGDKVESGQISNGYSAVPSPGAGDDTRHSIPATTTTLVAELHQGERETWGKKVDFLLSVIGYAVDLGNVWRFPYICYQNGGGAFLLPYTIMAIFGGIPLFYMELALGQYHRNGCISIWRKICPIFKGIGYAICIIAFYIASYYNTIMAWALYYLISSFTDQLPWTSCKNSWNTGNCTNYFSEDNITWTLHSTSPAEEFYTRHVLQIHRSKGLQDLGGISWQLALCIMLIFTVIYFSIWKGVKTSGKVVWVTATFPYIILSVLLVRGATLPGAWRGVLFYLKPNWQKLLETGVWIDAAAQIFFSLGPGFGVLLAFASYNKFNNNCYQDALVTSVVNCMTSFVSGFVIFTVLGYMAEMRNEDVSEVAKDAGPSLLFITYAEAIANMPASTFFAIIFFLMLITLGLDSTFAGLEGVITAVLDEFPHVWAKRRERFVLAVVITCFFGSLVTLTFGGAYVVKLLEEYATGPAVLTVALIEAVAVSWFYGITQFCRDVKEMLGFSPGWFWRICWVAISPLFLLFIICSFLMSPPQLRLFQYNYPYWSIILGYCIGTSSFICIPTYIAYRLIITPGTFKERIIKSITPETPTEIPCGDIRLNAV

[2] = target: T1, Sodium-dependent serotonin transporter; assay: Irreversible photoaffinity labeling of hemagglutinin-tagged human SERT expressed in LLCPK1 cells assessed as 10 uM (s)-citalopram-induced blocking of compound binding at 10 nM incubated for 1.5 hrs at 4 degC followed by irradiation with shortwave ultraviolet light for 5 mins by SDS-PAGE and autoradiography method; type: cell-based; settings: LLC-PK1, tested as the 125I-labelled form
Target sequence in this assay (P31645 whole entry, looked up): as the sequence (P31645 whole entry) above

[3] = target: T1, Sodium-dependent serotonin transporter; assay: Irreversible photoaffinity labeling of hemagglutinin-tagged human SERT expressed in LLCPK1 cells at 10 nM incubated for 1.5 hrs at 4 degC followed by irradiation with shortwave ultraviolet light for 5 mins by SDS-PAGE and autoradiography method; type: cell-based; settings: LLC-PK1, tested as the 125I-labelled form
Target sequence in this assay (P31645 whole entry, looked up): as the sequence (P31645 whole entry) above

[4] = target: Sodium-dependent serotonin transporter (Homo sapiens, UniProt P31645, S438T); type: cell-based, HEK293
Sequence of Sodium-dependent serotonin transporter (Homo sapiens, UniProt P31645, S438T) (P31645 whole entry S438T): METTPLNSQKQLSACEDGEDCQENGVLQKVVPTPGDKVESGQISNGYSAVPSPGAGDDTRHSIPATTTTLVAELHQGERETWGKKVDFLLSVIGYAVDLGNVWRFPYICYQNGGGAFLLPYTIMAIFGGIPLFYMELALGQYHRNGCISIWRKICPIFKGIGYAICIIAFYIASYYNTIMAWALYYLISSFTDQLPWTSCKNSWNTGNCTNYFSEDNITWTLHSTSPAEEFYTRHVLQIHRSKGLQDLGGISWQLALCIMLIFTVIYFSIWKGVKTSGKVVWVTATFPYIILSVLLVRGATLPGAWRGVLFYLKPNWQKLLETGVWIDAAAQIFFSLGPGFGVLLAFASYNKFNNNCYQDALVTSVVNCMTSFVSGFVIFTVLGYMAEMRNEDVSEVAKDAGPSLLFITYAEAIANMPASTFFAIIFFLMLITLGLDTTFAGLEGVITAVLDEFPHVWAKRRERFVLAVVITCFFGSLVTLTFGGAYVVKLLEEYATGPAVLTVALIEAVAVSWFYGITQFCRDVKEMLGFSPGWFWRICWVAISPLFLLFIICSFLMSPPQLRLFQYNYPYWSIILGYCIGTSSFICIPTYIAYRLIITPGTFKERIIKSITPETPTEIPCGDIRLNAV

Homo sapiens = organism: Homo sapiens; assay: Resistance index, ratio of Ki for human SERT S438T mutant expressed in HEK293 GripTite cells to Ki for wild type human SERT expressed in HEK293 GripTite cells; type: cell-based

Row | SMILES | Ki [1] | inhibition [2] | Activity [3] | Ki [4] | Ratio Ki (Homo sapiens)
1 | CN(C)CCC[C@@]1(c2ccc(F)cc2)OCc2cc(CNC(=O)CCc3ccc(N=[N+]=[N-])c(I)c3)ccc21 | 0.038 µM | > 99% | Active | 9.88 µM | 
2 | COC(=O)[C@@H]1C2CCC(C[C@@H]1c1ccc(Cl)cc1)N2CCCCc1ccc(N=[N+]=[N-])c(I)c1 (some centres undefined) |  |  | Active |  | 
3 | CN(C)CCC[C@@]1(c2ccc(F)cc2)OCc2cc(CNC(=O)c3ccc(N=[N+]=[N-])c(I)c3)ccc21 | 0.024 µM | > 99% | Active | 5.7 µM | 
4 | CN(CCC[C@@]1(c2ccc(F)cc2)OCc2cc(C#N)ccc21)CCc1ccc(N=[N+]=[N-])c(I)c1 | 0.227 µM | 30% | Active | 3.81 µM | 17
